According to the NIST ThermoML archive (doi:10.1021/je400184t):

Experiment: excess molar enthalpy (molar enthalpy of mixing); xn = mol fraction of the nth substance listed
Conditions: 298.15 K, 101 kPa, Liquid, Calvet calorimetry

NCCO [2-aminoethan-1-ol] + c1ccncc1
Conditions | excess molar enthalpy [kJ/mol]
x2 = 0.00998 | 0.032
x2 = 0.0187 | 0.06
x2 = 0.02728 | 0.088
x2 = 0.0357 | 0.114
x2 = 0.04398 | 0.14
x2 = 0.05212 | 0.165
x2 = 0.06012 | 0.189
x2 = 0.06798 | 0.213
x2 = 0.07572 | 0.235
x2 = 0.08333 | 0.257
x2 = 0.09081 | 0.279
x2 = 0.09818 | 0.299
x2 = 0.1054 | 0.319
x2 = 0.1125 | 0.338
x2 = 0.1196 | 0.356
x2 = 0.1265 | 0.374
x2 = 0.1333 | 0.389
x2 = 0.14 | 0.404
x2 = 0.1466 | 0.419
x2 = 0.153 | 0.433
x2 = 0.1594 | 0.446
x2 = 0.1657 | 0.459
x2 = 0.1719 | 0.471
x2 = 0.1782 | 0.483
x2 = 0.1845 | 0.495
x2 = 0.1907 | 0.507
x2 = 0.197 | 0.519
x2 = 0.2032 | 0.53
x2 = 0.2095 | 0.541
x2 = 0.2157 | 0.552
x2 = 0.222 | 0.562
x2 = 0.2282 | 0.573
x2 = 0.2345 | 0.583
x2 = 0.2407 | 0.593
x2 = 0.247 | 0.602
x2 = 0.2532 | 0.612
x2 = 0.2595 | 0.621
x2 = 0.2657 | 0.631
x2 = 0.272 | 0.64
x2 = 0.2782 | 0.649
x2 = 0.2845 | 0.657
x2 = 0.2907 | 0.666
x2 = 0.297 | 0.674
x2 = 0.3032 | 0.682
x2 = 0.3095 | 0.69
x2 = 0.3157 | 0.698
x2 = 0.322 | 0.706
x2 = 0.3282 | 0.713
x2 = 0.3345 | 0.721
x2 = 0.3407 | 0.728
x2 = 0.347 | 0.735
x2 = 0.3532 | 0.742
x2 = 0.3595 | 0.749
x2 = 0.3621 | 0.752
x2 = 0.3652 | 0.755
x2 = 0.3684 | 0.758
x2 = 0.3716 | 0.762
x2 = 0.3748 | 0.765
x2 = 0.3781 | 0.768
x2 = 0.3815 | 0.772
x2 = 0.385 | 0.775
x2 = 0.3885 | 0.778
x2 = 0.3921 | 0.781
x2 = 0.3957 | 0.782
x2 = 0.3994 | 0.786
x2 = 0.4032 | 0.79
x2 = 0.407 | 0.794
x2 = 0.4109 | 0.797
x2 = 0.4149 | 0.801
x2 = 0.419 | 0.805
x2 = 0.4232 | 0.809
x2 = 0.4274 | 0.813
x2 = 0.4317 | 0.816
x2 = 0.4361 | 0.82
x2 = 0.4406 | 0.824
x2 = 0.4452 | 0.827
x2 = 0.4499 | 0.831
x2 = 0.4547 | 0.834
x2 = 0.4596 | 0.838
x2 = 0.4646 | 0.841
x2 = 0.4698 | 0.845
x2 = 0.475 | 0.848
x2 = 0.4803 | 0.851
x2 = 0.4858 | 0.855
x2 = 0.4914 | 0.858
x2 = 0.4971 | 0.86
x2 = 0.503 | 0.863
x2 = 0.509 | 0.866
x2 = 0.5151 | 0.868
x2 = 0.5214 | 0.87
x2 = 0.5219 | 0.871
x2 = 0.5284 | 0.873
x2 = 0.535 | 0.875
x2 = 0.5418 | 0.877
x2 = 0.5488 | 0.878
x2 = 0.5559 | 0.88
x2 = 0.5633 | 0.88
x2 = 0.5708 | 0.881
x2 = 0.5786 | 0.881
x2 = 0.5865 | 0.881
x2 = 0.5947 | 0.881
x2 = 0.6031 | 0.88
x2 = 0.6117 | 0.879
x2 = 0.6206 | 0.877
x2 = 0.6298 | 0.874
x2 = 0.6392 | 0.871
x2 = 0.649 | 0.867
x2 = 0.659 | 0.862
x2 = 0.6693 | 0.856
x2 = 0.68 | 0.849
x2 = 0.691 | 0.841
x2 = 0.7024 | 0.832
x2 = 0.7141 | 0.822
x2 = 0.7263 | 0.809
x2 = 0.7389 | 0.796
x2 = 0.7519 | 0.779
x2 = 0.7654 | 0.761
x2 = 0.7793 | 0.739
x2 = 0.7938 | 0.715
x2 = 0.8089 | 0.687
x2 = 0.8245 | 0.656
x2 = 0.8408 | 0.62
x2 = 0.8577 | 0.576
x2 = 0.8753 | 0.529
x2 = 0.8936 | 0.472
x2 = 0.9127 | 0.407
x2 = 0.9327 | 0.331
x2 = 0.9535 | 0.24
x2 = 0.9753 | 0.135
x2 = 0.9981 | 0.005
